From PubChem BioAssay (NCI)
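In this assay, cells in 96-well plates receive the compound at five concentrations for 48 hours. Endpoints are linearly interpolated between the surrounding concentrations. TGI marks complete inhibition of growth.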

Experiments:
Experiment in all cases: growth of human tumour cells (NCI), 48 h
NCI-H23 lung = test system: NCI-H23 lung
SK-MEL-2 melanoma = test system: SK-MEL-2 melanoma
SK-OV-3 ovarian = test system: SK-OV-3 ovarian
SF-539 CNS = test system: SF-539 CNS
CCRF-CEM leukemia = test system: CCRF-CEM leukemia
SF-268 CNS = test system: SF-268 CNS
SK-MEL-5 melanoma = test system: SK-MEL-5 melanoma
HCT-15 colon = test system: HCT-15 colon
ACHN renal = test system: ACHN renal
MDA-MB-435 = test system: MDA-MB-435

| SMILES | TGI (NCI-H23 lung) [µM] | TGI (SK-MEL-2 melanoma) [µM] | TGI (SK-OV-3 ovarian) [µM] | TGI (SF-539 CNS) [µM] | TGI (CCRF-CEM leukemia) [µM] | TGI (SF-268 CNS) [µM] | TGI (SK-MEL-5 melanoma) [µM] | TGI (HCT-15 colon) [µM] | TGI (ACHN renal) [µM] | TGI (MDA-MB-435) [µM] |
| --- | --- | --- | --- | --- | --- | --- | --- | --- | --- | --- |
| CC(=O)OC1CCC2(C)C(CCC3C2CCC2(C)C(c4ccc(=O)oc4)C(OC(C)=O)CC32O)C1 (centres undefined) | 0.0296 | 0.0911 | 0.103 | 0.015 | 0.0556 | 0.0341 | 0.0216 | 0.0313 |  |  |
| O=C1OCc2nc3c(c(-c4ccccc4C(F)(F)F)c21)C(=O)OC3 | > 100 | > 100 | > 100 | > 100 | > 100 | > 100 | > 100 | > 100 | > 100 |  |
| C=CCCCCCCCCCOC1C=CC(O)C(CO)O1 (centres undefined) | 97.5 | > 100 | > 100 | > 100 |  | > 100 | 48.1 | > 100 | > 100 | > 100 |
| CCC(C)C(NC(=O)c1cccc2c(=O)c3ccccc3[nH]c12)C(=O)O (centres undefined) | > 100 | > 100 | > 100 |  | > 100 | > 100 | > 100 | > 100 | > 100 | > 100 |
| Cc1cc2c3ccccc3n3c2c2c1OC1(C)CCC(C2C1)C3(C)C (centres undefined) |  | > 25 | > 25 | > 25 | > 25 | > 25 | > 25 | > 25 | > 25 |  |
| O=C(CC(C(=O)c1ccsc1)c1cccs1)c1cccs1 (centres undefined) | > 100 | > 100 | > 100 | > 100 | > 100 | > 100 | 85.6 | > 100 | > 100 |  |
| CCCNC(=O)c1cc(OC)c(OC)cc1NC(=O)C12CC3CC(CC(C3)C1)C2 | 31.6 | 29.5 |  | 46.9 | > 100 | 35 | > 100 | 32.7 | 30.9 | 32.8 |
| O=C1c2ccccc2CC12Cc1ccc3c(c1C2=O)CCCC3 (centres undefined) |  | > 100 | > 100 | > 100 | > 100 | > 100 | > 100 | > 100 | > 100 | > 100 |
| c1cc(CSP234N5CCN2CCN3CCN4CC5)cc(CSP234N5CCN2CCN3CCN4CC5)c1 | > 100 | 45.1 |  | 55.5 | 62.3 | > 100 | 45.5 | 70.8 | > 100 | 59.3 |
| Cc1cc2nc3c(N)nn(CCCN(C)C)c3nc2cc1C | > 100 |  | > 100 | > 100 |  | > 100 | > 100 | > 100 | > 100 | > 100 |
| CCCCCCCC(=O)NC(C)(C)C(=O)NCC(=O)NC(CC(C)C)C(=O)NC(C)(C)C(=O)NCC(=O)NCC(=O)NC(CC(C)C)C(=O)NC(C)(C)C(=O)NCC(=O)NC(C(=O)NC(CO)CC(C)C)C(C)CC (centres undefined) | 7.49 | 5.85 | 7.61 |  | 11.7 | 7.5 | 7.19 | 10.3 | 8.75 | 8.24 |
| CCN(CC)C(=O)Cc1[nH][nH]c(=O)c1C(=O)N(CC)CC | > 100 | > 100 | > 100 | > 100 | > 100 | > 100 |  | > 100 | > 100 |  |
| Cc1ccc(NC(c2ccccc2)P(=O)(c2ccccc2)c2ccccc2)cc1 (centres undefined) | > 100 | > 100 | > 100 | > 100 |  | > 100 | > 100 | > 100 | > 100 | > 100 |
| CCOC(=O)CN(CC)C(=O)NC12CC3CC(CC(C3)C1)C2 | 560 | 281 | 513 | 659 | 631 | > 750 | 211 | 646 |  |  |
| O=C1C=C2SC3C[C@@]24CC1(O)[N+]1=c2c4c(c(O)c4c2=C(C=N4)CC1)N3 | 2.71 | 2.77 | 3.78 | 2.85 | 2.03 | 2.19 | 2.91 | 3.92 |  |  |
| C[N+]1(CC[N+]2(C)CCCC2c2cccnc2)CCCC1c1cccnc1 (centres undefined) | > 100 | > 100 | > 100 | > 100 |  | > 100 | > 100 | > 100 | > 100 | > 100 |
| Clc1ccc(Cc2nc3cc4ccccc4cc3[nH]2)cc1Cl | 71.6 | 34.4 |  | 41.3 | > 100 | 62.7 | 20.4 | > 100 | 81.2 | 49.3 |
| N#CCCN(C(=O)Nc1ccc(NC(=O)N(CCC#N)c2ccccc2)cc1)c1ccccc1 | > 100 | > 100 | > 100 |  |  | > 100 | > 100 | > 100 | > 100 | > 100 |
| CC[C@@]1(O)C(=O)OCc2c1cc1n(c2=O)Cc2c-1nc1ccc(N)cc1c2CC[Si](C)(C)C | < 0.01 | 0.427 | 1.63 | < 0.01 | < 0.01 | 1.76 | < 0.0222 | 14.2 |  | 4.54 |
| O=C(OC[C@H]1C[C@H]2C(=O)OCCC[C@H]2O1)c1ccccc1 | > 100 | > 100 | > 100 |  | > 100 | > 100 | > 100 | > 100 | > 100 | > 100 |
| C=CCSC1=N/C(=C\c2ccc(C)cc2)C(=O)N1CC=C | > 100 | 61 | > 100 | > 100 |  | > 100 | 27.3 | > 100 | > 100 | 98.8 |
| CCOC(=O)c1c(NS(=O)(=O)c2ccccc2)sc2c1CCCC2 | > 100 | > 100 |  | > 100 | > 100 | > 100 | > 100 | > 100 | > 100 |  |
| O=[N+]([O-])c1ccc(N=P(c2ccccc2)(c2ccccc2)c2ccccc2)n2nnnc12 | > 100 | > 100 | 95.8 | 50.9 | > 100 | > 100 | > 100 | > 100 | > 100 |  |
